Measured values taken from patent US20020002202A1, “Use of fumarate salt of L-carnitine or its alkanoyl derivatives in ischaemia” (priority 1998, published 2002).
“Also recorded” adds a separate entry of the source.

What was measured:
[1] = amount equivalent to the exogenous L-carnitine required; cited from earlier work
[2] = system: Perfused Heart; assay: low-pressure or low-flow ischemia model, perfused heart (Langendorff)
Source text: In this example, the low-pressure or low-flow ischemia model was used, which is a model recognised as valid for cardiac ischemia (Bolukoglu, H. et al. Am. J. Physiol. 1996: 270; H817-26).
The treatment schedule is illustrated in FIG. 1, in which the letters A-F denote the heart effluent sampling times for the measurement of metabolites. The hearts are removed from the animals and mounted on a Langerdorff appliance. The perfusion medium replacing the blood was a Krebs-Heinsleit standard bicarbonate buffer containing glucose 12 mM as energy source for cardiac metabolism.
After 30 minute perfusion at a pressure of 100 cm of water, ischemia was induced by reducing the perfusion pressure of the heart to 25 cm of water, thus reducing coronary flow from approximately 2 ml/min to approximately 0.3 ml/min. Reduction of the perfusion pressure gives rise to ischemia, since the heart will pump the fluid in the low-perfusion area rather than via the coronary bloodstream, supplying the flow to the heart.
This control model was compared with hearts perfused with L-carnitine 10 mM or L-carnitine fumarate 10 mM.
Cardiac function was tested in three different ways.
In the first, the NRM ^31P signal was monitored in real time.
This signal provides the best indication of the energy status of the heart.
In the second, the haemodynamics of the heart was measured by means of a pressure transducer mounted to measure the perfusion pressure. The haemodynamic measurements include heart rate, relative dP/dt (measurement of the contraction force of the heart) and the cardiac contraction amplitude. Coronary flow was also measured as an indicator of the heart's ability to provide oxygen and energy for its own metabolism.
In the third type of test, the metabolites and the enzyme LDH released by the heart were analysed in the effluent. The release of LDH indicates damage to cardiac tissue. The release of metabolites by the heart was tested by means of mass spectrometry coupled with gas chromatography.
The procedures of example 1 were substantially repeated, with the addition of a treatment with carnitine alone as a further control.

[3] = heart effluent, GC-MS, low-flow ischemia, 10 mM, vs control hearts

| Compound | gastrointestinal disorders (increased volume and fluidity of faeces and frequency of bowel movements) [1] | reserves of high-energy phosphate (creatine phosphate observed at NMR) ([2]; 31P NMR, after 45 minutes of ischemia, 10 mM, vs control hearts) | succinate released by the heart ([2]; heart effluent, FIG. 3, as compared to lactate, Example 2) | lactate released by the heart [2, 3] | release of malate [2, 3] | release of LDH ([2]; heart effluent, low-flow ischemia, 10 mM in perfusion medium, vs control hearts) | coronary flow ([2]; postischemic, 10 mM, vs control hearts) | postischemic cardiac contraction amplitude ([2]; pressure transducer, 10 mM, vs control hearts) | ATP phosphate peaks (alpha, beta, gamma) ([2]; 31P NMR, FIG. 2, after 40 minutes of ischemia, Example 2) |
| --- | --- | --- | --- | --- | --- | --- | --- | --- | --- |
| C[N+](C)(C)C[C@H](O)CC(=O)[O-].O=C(O)C(O)C(O)C(=O)O [L-carnitine L-tartrate] | caused |  |  |  |  |  |  |  |  |
| L-carnitine acid fumarate [L-carnitine fumarate] | eliminated | greater | low amount | less and reduction | more | reduced; also recorded: affords protection against ischemic damage | greater | greater |  |
| C[N+](C)(C)C[C@H](O)CC(=O)[O-] [L-carnitine] | caused |  |  |  |  |  |  |  | lacking |
